Data: patent US4206156A, “Hydroxyaminohydrocarbonphosphonic acids” (Fujisawa Pharmaceutical Company, Limited, priority 1976, dated 1980)
Where a name gives a salt, the structure may show the parent alone.

Columns and labels:
[1] = tested on: pathogenic microorganisms; settings: in words; from work filed as U.S. application Ser. No. 819,551; cited from earlier work
[2] = tested on: Pseudomonas aeruginosa 1101-76; assay: Protecting effect in experimental mice infections; assay type: in vivo, mice (ICR-strain); settings: Pseudomonas aeruginosa 1101-76, 1.2 × 10^6 viable cells per mouse, survival 1 week
Procedure: Male mice of ICR-strain, aged 4 weeks and weighing 24±1 g., were used. Each experimental group consists of 8 animals.
A prescribed amount of pathogenic bacteria, suspended in 5% aqueous Mucin solution (0.5 ml.), was intraperitoneally injected into the test animals.
Subsequently, the above test compound in water (0.25 ml.) was administered to each of the test animals, subcutaneously three times at 0, 1, 3 hours or orally once at 1 hour after the infection of pathogenic bacteria, respectively.

[3] = tested on: Salmonella typhimurium 1406; assay: M.I.C., serial agar dilution, nutrient agar (inoculum 10^6 cells/ml); assay type: cell-based; settings: Salmonella enterica, 37° C., 20 hours
Procedure: (§1) M.I.C. test was conducted by the usual serial agar dilution method, (inoculum:10^6 cells/ml.), using a nutrient agar which was incubated at 37° C. for 20 hours. M.I.C. value is expressed as the minimum concentration of the monoammonium salt of 3-(N-formyl-N-hydroxyamino)-propylphosphonic acid (mcg/ml.) which inhibits growth of microorganisms.

[4] = tested on: Salmonella typhi 0-901; assay: as above; assay type: cell-based; settings: Salmonella enterica, 20 h
Procedure: as §1

[5] = tested on: Proteus inconstans 1436-21; assay: as above; assay type: cell-based; settings: Providencia alcalifaciens, 143621, 37° C., 20 hours
Procedure: as §1

[6] = tested on: Salmonella enteritidis 1891; assay: as above; assay type: cell-based; settings: Salmonella enterica, 37° C., 20 hours
Procedure: as §1

[7] = tested on: Shigella flexneri IaEW8; assay: as above; assay type: cell-based; settings: 37° C., 20 hours
Procedure: as §1

[8] = tested on: Enterobacter aerogenes 1402-10; assay: as above; assay type: cell-based; settings: Klebsiella aerogenes, 140210, 37° C., 20 hours
Procedure: as §1

[9] = tested on: Salmonella paratyphi A-1015; assay: as above; assay type: cell-based; settings: Salmonella enterica, 20 h
Procedure: as §1

[10] = tested on: Proteus rettgeri 1434-3; assay: as above; assay type: cell-based; settings: Providencia rettgeri, 14343, 37° C., 20 hours
Procedure: as §1

[11] = tested on: Proteus morganii 1433-2; assay: as above; assay type: cell-based; settings: Morganella morganii, 14332, 37° C., 20 hours
Procedure: as §1

[12] = tested on: Proteus mirabilis 1432-75; assay: as above; assay type: cell-based; settings: 143275, 37° C., 20 hours
Procedure: as §1

[13] = tested on: Staphylococcus aureus FDA209P JC-1; assay: as above; assay type: cell-based; settings: 37° C., 20 hours
Procedure: as §1

[14] = tested on: Citrobacter freundii 1381-3; assay: as above; assay type: cell-based; settings: 13813, 37° C., 20 hours
Procedure: as §1

[15] = tested on: Pseudomonas aeruginosa IAM 1095; assay: as above; assay type: cell-based; settings: IAM1095, 37° C., 20 hours
Procedure: as §1

[16] = tested on: Escherichia coli NIHJ JC-2; assay: as above; assay type: cell-based; settings: NIHJJC2, 37° C., 20 hours
Procedure: as §1

[17] = tested on: Proteus vulgaris IAM 1025; assay: as above; assay type: cell-based; settings: IAM1025, 37° C., 20 hours
Procedure: as §1

[18] = tested on: Enterobacter cloacae 1401-4; assay: as above; assay type: cell-based; settings: 14014, 37° C., 20 hours
Procedure: as §1

[19] = tested on: Sarcina lutea PCI 1001; assay: as above; assay type: cell-based; settings: Micrococcus luteus, PCI1001, 37° C., 20 hours
Procedure: as §1

[20] = tested on: Serratia marcescens 1421-4; assay: as above; assay type: cell-based; settings: 14214, 37° C., 20 hours
Procedure: as §1

[21] = tested on: Bacillus substilis ATCC6633; assay: as above; assay type: cell-based; settings: ATCC6633, 20 h
Procedure: as §1

[22] = tested on: Shigella sonnei I EW33; assay: as above; assay type: cell-based; settings: IEW33, 37° C., 20 hours
Procedure: as §1

[23] = tested on: Klebsiella pneumoniae NCTC 418; assay: as above; assay type: cell-based; settings: NCTC418, 37° C., 20 hours
Procedure: as §1

[24] = tested on: Escherichia coli 1341-18(R); assay: as above; assay type: cell-based; settings: 20 h
Procedure: as §1

[25] = tested on: Salmonella typhimurium 1406; assay: M.I.C., serial agar dilution, nutrient agar (inoculum 10^5 cells/ml); assay type: cell-based; settings: Salmonella enterica, 37° C., 18 hours
Procedure: (§2) M.I.C. test was conducted by an usual serial agar dilution method, (inoculum: 10^5 cells/ml.), using a nutrient agar which was incubated at 37° C. for 18 hours. M.I.C. value is expressed as the minimum concentration of the monopotassium salt of 3-(N-formyl-N-hydroxyamino)-trans-1-propenylphosphonic acid (mcg/ml.) which inhibits growth of microorganisms.

[26] = tested on: Salmonella typhi 0-901; assay: as above; assay type: cell-based; settings: Salmonella enterica, 37° C., 18 hours
Procedure: as §2

[27] = tested on: Proteus inconstans 1436-21; assay: as above; assay type: cell-based; settings: Providencia alcalifaciens, 143621, 37° C., 18 hours
Procedure: as §2

[28] = tested on: Salmonella enteritidis 1891; assay: as above; assay type: cell-based; settings: Salmonella enterica, 37° C., 18 hours
Procedure: as §2

[29] = tested on: Shigella flexneri IaEW8; assay: as above; assay type: cell-based; settings: 37° C., 18 hours
Procedure: as §2

[30] = tested on: Enterobacter aerogenes 1402-10; assay: as above; assay type: cell-based; settings: Klebsiella aerogenes, 140210, 37° C., 18 hours
Procedure: as §2

[31] = tested on: Salmonella paratyphi A-1015; assay: as above; assay type: cell-based; settings: Salmonella enterica, 37° C., 18 hours
Procedure: as §2

[32] = tested on: Proteus rettgeri 1434-3; assay: as above; assay type: cell-based; settings: Providencia rettgeri, 14343, 37° C., 18 hours
Procedure: as §2

[33] = tested on: Proteus morganii 1433-2; assay: as above; assay type: cell-based; settings: Morganella morganii, 14332, 37° C., 18 hours
Procedure: as §2

[34] = tested on: Proteus mirabilis 1432-75; assay: as above; assay type: cell-based; settings: 143275, 37° C., 18 hours
Procedure: as §2

[35] = tested on: Citrobacter freundii 1381-3; assay: as above; assay type: cell-based; settings: 13813, 37° C., 18 hours
Procedure: as §2

[36] = tested on: Pseudomonas aeruginosa IAM 1095; assay: as above; assay type: cell-based; settings: IAM1095, 37° C., 18 hours
Procedure: as §2

[37] = tested on: Escherichia coli 1341-18(R^+); assay: as above; assay type: cell-based; settings: 37° C., 18 hours
Procedure: as §2

[38] = tested on: Proteus vulgaris IAM 1025; assay: as above; assay type: cell-based; settings: IAM1025, 37° C., 18 hours
Procedure: as §2

[39] = tested on: Enterobacter cloacae 1401-4; assay: as above; assay type: cell-based; settings: 14014, 37° C., 18 hours
Procedure: as §2

[40] = tested on: Sarcina lutea PCI 1001; assay: as above; assay type: cell-based; settings: Micrococcus luteus, PCI1001, 37° C., 18 hours
Procedure: as §2

[41] = tested on: Staphylococcus aureus FDA209PJC-1; assay: as above; assay type: cell-based; settings: FDA209PJC1, 37° C., 18 hours
Procedure: as §2

[42] = tested on: Serratia marcescens 1421-4; assay: as above; assay type: cell-based; settings: 14214, 37° C., 18 hours
Procedure: as §2

[43] = tested on: Shigella sonnei I EW33; assay: as above; assay type: cell-based; settings: IEW33, 37° C., 18 hours
Procedure: as §2

[44] = tested on: Klebsiella pneumoniae NCTC 418; assay: as above; assay type: cell-based; settings: NCTC418, 37° C., 18 hours
Procedure: as §2

[45] = tested on: Bacillus subtilis ATCC6633; assay: as above; assay type: cell-based; settings: 37° C., 18 hours
Procedure: as §2

[46] = Acute toxicity, mouse; set-up: species or system Mouse (ICR-strain); settings: in vivo, observed one week
Description: Male and Female mice of ICR-strain, aged 6 weeks were used.
(§3) Litchfield-Wilcoxon method

[47] = Acute toxicity, rat; settings: in vivo, male, observed one week
Description: as §3

CC(=O)N(O)CCCP(=O)(O)O [FR-900098, 3-(N-acetyl-N-hydroxyamino)propylphosphonic acid]
antimicrobial activities [1]: antimicrobial activities against various pathogenic microorganisms

O=CN(O)CCCP(=O)(O)O [monoammonium salt of 3-(N-formyl-N-hydroxyamino)propylphosphonic acid]
ED50, oral administration ([2]; orally once at 1 hour): 0.280 mg/mouse | ED50, subcutaneous administration ([2]; s.c. three times at 0, 1, 3 hours): 0.228 mg/mouse | MIC [3]: 25 µg/mL | MIC [4]: 0.39 µg/mL | MIC [5]: 3.13 µg/mL | MIC [6]: 0.39 µg/mL | MIC [7]: 12.5 µg/mL | MIC [8]: 6.25 µg/mL | MIC [9]: 12.5 µg/mL | MIC [10]: 1.56 µg/mL | MIC [11]: > 800 µg/mL | MIC [12]: 6.25 µg/mL | MIC [13]: > 800 µg/mL | MIC [14]: 3.13 µg/mL | MIC [15]: 0.78 µg/mL | MIC [16]: 200 µg/mL | MIC [17]: 3.13 µg/mL | MIC [18]: 6.25 µg/mL | MIC [19]: ≤ 0.1 µg/mL | MIC [20]: 100 µg/mL | MIC [21]: 6.25 µg/mL | MIC [22]: 100 µg/mL | MIC [23]: 100 µg/mL | MIC [24]: 12.5 µg/mL

O=CN(O)C/C=C/P(=O)(O)O [monopotassium salt of 3-(N-formyl-N-hydroxyamino)-trans-1-propenylphosphonic acid]
MIC [25]: 12.5 µg/mL | MIC [26]: 0.78 µg/mL | MIC [27]: 25 µg/mL | MIC [28]: 6.25 µg/mL | MIC [29]: 50 µg/mL | MIC [30]: 50 µg/mL | MIC [31]: 25 µg/mL | MIC [32]: 6.25 µg/mL | MIC [33]: > 100 µg/mL | MIC [34]: 0.39 µg/mL | MIC [35]: 12.5 µg/mL | MIC [36]: 1.56 µg/mL | MIC [37]: 25 µg/mL | MIC [38]: 1.56 µg/mL | MIC [39]: 12.5 µg/mL | MIC [40]: 0.2 µg/mL | MIC [41]: > 100 µg/mL | MIC [42]: > 100 µg/mL | MIC [43]: 25 µg/mL | MIC [44]: 100 µg/mL | MIC [45]: 6.25 µg/mL

O=CN(O)CCCP(=O)(O)O [monosodium salt of 3-(N-formyl-N-hydroxyamino)propylphosphonic acid]
LD50 at 168 h ([46]; po, female, oral, read-out: LD50, oral administration): > 11000 mg/kg | LD50 at 168 h ([46]; po, male, oral, read-out: LD50, oral administration): 11000 mg/kg | LD50 at 168 h ([46]; sc, female, subcutaneous, read-out: LD50, subcutaneous administration): 8270 mg/kg | LD50 at 168 h ([46]; sc, male, subcutaneous, read-out: LD50, subcutaneous administration): 8050 mg/kg | LD50 at 168 h ([47]; oral, read-out: LD50, oral administration): > 11000 mg/kg | LD50 at 168 h ([47]; sc, subcutaneous, read-out: LD50, subcutaneous administration): 8000 mg/kg
